In ChEMBL document CHEMBL1156829 (Proc Natl Acad Sci U S A, 2008):

How the values were obtained:
[1] = NOVARTIS: Cytotoxicity against human hepatocellular carcinoma cell line (Huh7); assay type: toxicity, cell-based, Huh-7; settings: Huh7 cells (hepatocellular carcinoma cell line)
Plasmodium falciparum [2] = assay: NOVARTIS: Inhibition of Plasmodium falciparum 3D7 (drug-susceptible) proliferation in erythrocyte-based infection assay; assay type: functional, organism-based; settings: Plasmodium falciparum, 3D7
Plasmodium falciparum [3] = assay: NOVARTIS: Inhibition of Plasmodium falciparum W2 (drug-resistant) proliferation in erythrocyte-based infection assay; assay type: functional, organism-based; settings: Plasmodium falciparum, W2; read-out: EC50

Row | SMILES | CC50 [1] | EC50 (Plasmodium falciparum [2]) | EC50 (Plasmodium falciparum [3])
1 | COc1cc(C=NNc2nc3nonc3nc2Nc2ccc(Cl)cc2)ccc1O | > 10000 nM | > 1250 nM | 1030 nM
2 | O=c1c([N+](=O)[O-])cccn1Cc1ccc(F)cc1Cl | > 100000 nM | 358 nM | 783 nM
3 | Nc1ccc2[nH]c(/C=C/c3ccc(Cl)cc3)nc2c1 | > 10000 nM | > 1250 nM | 2080 nM
4 | CCOc1ccc2nc(C)cc(Nc3cccc(O)c3)c2c1 | 19800 nM | 201 nM | 289 nM
5 | N=c1c2c(n(Cc3ccc(Cl)cc3)c3c1CCC3)CCC2 | > 100000 nM | 62.7 nM | 125 nM
6 | COc1cc(OC)c(N(C)C(=O)c2cn(C3CCCC3)c(=O)c3c2c2ccccc2n3C)cc1Cl | 47200 nM | 97.7 nM | 55.3 nM
7 | Cc1ccc(C=NNc2ncnc3nc[nH]c23)cc1 | > 100000 nM | 697 nM | 804 nM
8 | COC(=O)c1c(-c2c(F)cccc2Cl)noc1/C=C/Nc1ccccc1 | > 10000 nM | 272 nM | 191 nM
9 | CCOc1cc(-c2nnc3[nH]c(=O)n(C)c(=O)c3n2)ccc1OC(C)C | > 100000 nM | 1100 nM | 394 nM
10 | O=C(NN=Cc1c(O)ccc2ccccc12)c1cccnc1 | > 100000 nM | 875 nM | 373 nM
11 | CN1CCCN(C(=O)C2CC23CCN(Cc2ccc(N(C)c4ccccc4)cc2)CC3)CC1 (configuration not stated) | 20800 nM | 1320 nM | 2580 nM
12 | c1ccc(CSc2scnc2[P+](c2ccccc2)(c2ccccc2)c2ccccc2)cc1 | 3190 nM | 335 nM | 563 nM
13 | CCOC(=O)c1c(N)n(-c2ccc(NC(=O)c3cccc([N+](=O)[O-])c3)cc2)c2nc3ccccc3nc12 | 19400 nM | 320 nM | 1740 nM
14 | CCOC(=O)c1cnc2cc(OCC3CC3)c(OCC3CC3)cc2c1O | > 100000 nM | < 5.72 nM | < 0.0706 nM
15 | Ic1ccc(NCc2cn3ccccc3n2)cc1 | > 100000 nM | 6370 nM | 4070 nM
16 | C=CC1CN2CCC1CC2[C@H](O)c1ccnc2ccc(OC)cc12 (some centres not stated) | 56500 nM | 11.2 nM | 45.3 nM
17 | CC(C)(C)CC(C)(C)Nc1c(-c2ccccc2OC(=O)c2ccccc2F)nc2ccccn12 | > 10000 nM | 1300 nM | 97.9 nM

Row | SMILES | CC50 [1] | EC50 (Plasmodium falciparum [2]) | EC50 (Plasmodium falciparum [3])
18 | C=CC1CN2CCC1CC2[C@@H](OC(=O)c1ccc(OC)cc1)c1ccnc2ccccc12 (some centres not stated) | 87100 nM | 309 nM | 509 nM
19 | O=C1C2C(C(=O)N1c1ccccc1F)C1(c3ccccc3)C(=O)C2(c2ccccc2)C(c2ccccc2)=C1c1ccccc1 (configuration not stated) | > 100000 nM | 811 nM | 344 nM
20 | CCCn1c(SCC(=O)Nc2ccccc2Cl)nc2c1c(=O)n(C)c(=O)n2C | > 10000 nM | > 1250 nM | 1320 nM
21 | CCOC(=O)C1CCN(C(c2cc3cc(OC)c(OC)cc3[nH]c2=O)c2nnnn2C(C)(C)C)CC1 (configuration not stated) | > 100000 nM | 889 nM | 567 nM
22 | CC(C)CC(=O)NCCCCNc1ccnc2cc(Cl)ccc12 | > 10000 nM | 620 nM | 430 nM
23 | CC(C)c1ccc(NC(=O)C(Cc2cccs2)c2nnn[nH]2)cc1 (configuration not stated) | > 100000 nM | 11300 nM | 1570 nM
24 | Cc1ccc(CNC(=O)c2cc3sc(Cl)cc3n2C)cc1 | > 100000 nM | 3130 nM | 1590 nM
25 | COc1cc(OC)cc(C(=O)NCc2n[nH]c(=S)n2-c2cccc(Cl)c2)c1 | > 100000 nM | 565 nM | 450 nM
26 | COC(=O)C1=C(C)NC(=Cc2cc(C)n(-c3ccc(Cl)c(Cl)c3)c2C)C1=O | > 100000 nM | 6900 nM | 6320 nM
27 | CCCCOc1ccc(C2C3CCCC=C3C(C#N)=C(N)C2(C#N)C#N)cc1 (configuration not stated) | 57700 nM | 3470 nM | 1480 nM
28 | COc1ccc(C2CC(=O)C3=C(C2)NC(C)=C(C(=O)OC2CCCC2)C3c2ccc(SC)cc2)cc1OC (configuration not stated) | > 100000 nM | 249 nM | 36.5 nM
29 | O=C(CCCOc1ccc(Cl)cc1Cl)NCCCn1ccnc1 | > 10000 nM | 480 nM | > 1250 nM
30 | CC1CC2(C)Oc3ccccc3CC2C(C)C1CNCCCN(C)C (configuration not stated) | 4790 nM | 241 nM | 192 nM
31 | FC(F)(F)c1cccc(-c2nc3c(s2)CN(C2CCCC2)CC3)c1 | 73000 nM | 5370 nM | 2950 nM
32 | CC[n+]1c(C)n(-c2ccccc2)c2ccc(C3Nc4ccccc4S3)cc21 (configuration not stated) | > 100000 nM | 1180 nM | 734 nM
33 | C/C=C/[P+](c1ccccc1)(c1ccccc1)c1ccccc1 | 2810 nM | 52.8 nM | 130 nM
34 | COc1cccc(C(=O)NCc2nnc(S)n2-c2ccc(Cl)c(Cl)c2)c1 | > 100000 nM | 275 nM | 273 nM
